From US12257247B2 (Monte Rosa Therapeutics AG, priority 2023, dated 2025)
Like-named read-outs stand apart in the source and are kept apart here.

Biological target: T1, VAV1 (Homo sapiens, UniProt P15498+Q96SW2)
T1 construct: A heterozygous VAV1 C-terminal HiBiT knock-in pool was generated at Monte Rosa Therapeutics from a clonal Jurkat cell; endogenous in cells; host or cells: Jurkat clone stably expressing LgBiT, homozygous GSPT1-G575N; heterozygous VAV1-HiBiT knock-in pool
Assay: VAV1 degradation activity, VAV1-HiBiT knock-in Jurkat luminescence assay (Example A, Table 1)
Assay type: cell-based
Conditions: VAV1-HiBiT knock-in Jurkat cells; for Dmax: Jurkat
In short: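 Luminescence was measured at 6 and 24 h after adding compound (10 μM stock) to VAV1-HiBiT knock-in Jurkat cells, which had been pre-incubated ~16 h at 37° C. in RPMI/10% FBS containing Endurazine. EC50 values came from control-normalised responses fitted to a 3-parameter logistic model with hillslope fixed at 1.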

[1] = luminescence read at 6 and 24 hours, read-out: VAV1 Dmax %
[2] = luminescence read at 6 and 24 hours, read-out: VAV1 Dmax %, class
[3] = luminescence read at 6 and 24 hours, read-out: VAV1 DC50
[4] = luminescence read at 6 and 24 hours, read-out: VAV1 DC50 (nM), class
[5] = luminescence read at 6 and 24 hours after compound addition, read-out: VAV1 Dmax %
[6] = luminescence read at 6 and 24 hours after compound addition, read-out: VAV1 Dmax %, class
[7] = luminescence read at 6 and 24 hours after compound addition, read-out: VAV1 DC50
[8] = luminescence read at 6 and 24 hours after compound addition, read-out: VAV1 DC50 (nM), class

Row | Structure (SMILES) | Dmax [1] [%] | Dmax [2] [%] | DC50 [3] [nM] | DC50 [4] [nM] | Dmax [5] [%] | Dmax [6] [%] | DC50 [7] [nM] | DC50 [8] [nM]
1 | O=C1CCC(c2cccc(-c3ccc4cc[nH]c4c3)c2Cl)C(=O)N1 (stereo not shown) [Compound 483, 3-(2-chloro-3-(1H-indol-6-yl)phenyl)piperidine-2,6-dione] |  |  |  |  | 88.1 | 60 to 90 | 59.9 | ≤ 100
2 | O=C1CCC(c2cccc(-c3ccc(Cn4ccc(C(F)(F)F)cc4=O)cc3)c2Cl)C(=O)N1 (stereo not shown) [Compound 171, 3-(2-chloro-4′-((2-oxo-4-(trifluoromethyl)pyridin-1(2H)-yl)methyl)-[1,1′-biphenyl]-3-yl)piperidine-2,6-dione] | 94.9 | > 90 | 93.8 | ≤ 100 |  |  |  | 
3 | O=C1CCC(c2cccc(-c3ccc(N4CCCC4=O)cc3)c2Cl)C(=O)N1 (stereo not shown) [Compound 162, 3-(2-chloro-4′-(2-oxopyrrolidin-1-yl)-[1,1′-biphenyl]-3-yl)piperidine-2,6-dione] | 73.1 | 60 to 90 | 283 | 100 to 1000 |  |  |  | 
4 | O=C1CCC(c2cccc(-c3ccc(Cn4ccc(F)cc4=O)cc3)c2Cl)C(=O)N1 (stereo not shown) [Compound 170, 3-(2-chloro-4′-((4-fluoro-2-oxopyridin-1(2H)-yl)methyl)-[1,1′-biphenyl]-3-yl)piperidine-2,6-dione] | 94.2 | > 90 | 69.7 | ≤ 100 |  |  |  | 
5 | O=C1CCC(c2cccc(-c3ccc(-n4cccnc4=O)c(F)c3)c2Cl)C(=O)N1 (stereo not shown) [Compound 419, 3-(2-chloro-3′-fluoro-4′-(2-oxopyrimidin-1(2H)-yl)-[1,1′-biphenyl]-3-yl)piperidine-2,6-dione] | 90.7 | > 90 | 43.1 | ≤ 100 |  |  |  | 
6 | O=C1CCC(c2cccc(-c3ccc(N4CCN5CCCC5C4=O)cc3)c2Cl)C(=O)N1 (stereo not shown) [Compound 308] | 93.8 | > 90 | 22.5 | ≤ 100 |  |  |  | 
7 | O=C1CCC(c2cccc(-c3ccc(CN4C(=O)CC45CCC5)cc3)c2Cl)C(=O)N1 (stereo not shown) [Compound 279] | 98.5 | > 90 | 4.83 | ≤ 100 |  |  |  | 
8 | O=C1CCC(c2cccc(-c3ccc(N4C(=O)OCCC4C(F)(F)F)cc3)c2Cl)C(=O)N1 (stereo not shown) [Compound 305] | 93 | > 90 | 19.6 | ≤ 100 |  |  |  | 
9 | C[C@@H]1COCC(=O)N1c1ccc(-c2cccc(C3CCC(=O)NC3=O)c2Cl)cc1 (stereo partly drawn) [Compound 441, 3-(2-chloro-4′-((R)-3-methyl-5-oxomorpholino)-[1,1′-biphenyl]-3-yl)piperidine-2,6-dione] | 90.5 | > 90 | 14.2 | ≤ 100 |  |  |  | 
10 | COc1cc(-c2cccc(C3CCC(=O)NC3=O)c2Cl)ccc1C(F)F (stereo not shown) [Compound 125] | 75.9 | 60 to 90 | 1530 | > 1000 |  |  |  | 
11 | O=C1CCC(c2cccc(-c3ccc(Cc4ccncn4)cc3)c2Cl)C(=O)N1 (stereo not shown) [Compound 401, 3-(2-chloro-4′-(pyrimidin-4-ylmethyl)-[1,1′-biphenyl]-3-yl)piperidine-2,6-dione] | 94.4 | > 90 | 15 | ≤ 100 |  |  |  | 
12 | O=C1CCC(c2cccc(-c3ccc4c(c3)CCN4)c2Cl)C(=O)N1 (stereo not shown) [Compound 490, 3-(2-chloro-3-(indolin-5-yl)phenyl)piperidine-2,6-dione] |  |  |  |  | 74.5 | 60 to 90 | 131 | 100 to 1000
13 | CN1CCN(c2ccc(-c3cccc(C4CCC(=O)NC4=O)c3Cl)cc2)C1=O (stereo not shown) [Compound 387, 3-(2-chloro-4′-(3-methyl-2-oxoimidazolidin-1-yl)-[1,1′-biphenyl]-3-yl)piperidine-2,6-dione] | 58.4 | < 60 | 865 | 100 to 1000 |  |  |  | 
14 | CC1(C)CCC(=O)N1c1ccc(-c2cccc(C3CCC(=O)NC3=O)c2Cl)cc1 (stereo not shown) [Compound 413, 3-(2-chloro-4′-(2,2-dimethyl-5-oxopyrrolidin-1-yl)-[1,1′-biphenyl]-3-yl)piperidine-2,6-dione] | 97.5 | > 90 | 4.87 | ≤ 100 |  |  |  | 

Other lines, results leading:

Row | Dmax [1] [%] | Dmax [2] [%] | DC50 [3] [nM] | DC50 [4] [nM] | Dmax [5] [%] | Dmax [6] [%] | DC50 [7] [nM] | DC50 [8] [nM] | Structure (SMILES)
15 | 57.8 | < 60 | 2170 | > 1000 |  |  |  |  | O=C1CCC(c2cccc(-c3ccc(N4CCOCC4)cc3)c2Cl)C(=O)N1 (stereo not shown) [Compound 338, 3-(2-chloro-4′-morpholino-[1,1′-biphenyl]-3-yl)piperidine-2,6-dione]
16 |  |  |  |  | 90 | 60 to 90 | 4.73 | ≤ 100 | CN1Cc2cc(-c3cccc(C4CCC(=O)NC4=O)c3Cl)ccc2N(Cc2ccn(C)n2)C1=O (stereo not shown) [Compound 503, 3-(2-chloro-3-(3-methyl-1-((1-methyl-1H-pyrazol-3-yl)methyl)-2-oxo-1,2,3,4-tetrahydroquinazolin-6-yl)phenyl)piperidine-2,6-dione]
17 | 98.6 | > 90 | 4.79 | ≤ 100 |  |  |  |  | O=C1CCC(c2cccc(-c3ccc(-c4cccn(CC(F)(F)F)c4=O)cc3)c2Cl)C(=O)N1 (stereo not shown) [Compound 458, 3-(2-chloro-4′-(2-oxo-1-(2,2,2-trifluoroethyl)-1,2-dihydropyridin-3-yl)-[1,1′-biphenyl]-3-yl)piperidine-2,6-dione]
18 | 89.6 | 60 to 90 | 91.5 | ≤ 100 |  |  |  |  | O=C1CCC(c2cccc(-c3ccc(Cn4ccccc4=O)cc3)c2F)C(=O)N1 (stereo not shown) [Compound 149, 3-(2-fluoro-4′-((2-oxopyridin-1(2H)-yl)methyl)-[1,1′-biphenyl]-3-yl)piperidine-2,6-dione]
19 | 76 | 60 to 90 | 167 | 100 to 1000 |  |  |  |  | CN1CCCN(c2ncc(-c3cccc(C4CCC(=O)NC4=O)c3Cl)cc2F)C1=O (stereo not shown) [Compound 382, 3-(2-chloro-3-(5-fluoro-6-(3-methyl-2-oxotetrahydropyrimidin-1(2H)-yl)pyridin-3-yl)phenyl)piperidine-2,6-dione]
20 | 20 | < 60 | ≥ 10000 | > 1000 |  |  |  |  | Cn1ccc(COc2ccc(-c3cc(C#N)cc(C4CCC(=O)NC4=O)c3Cl)cc2)n1 (stereo not shown) [Compound 157]
21 | 98 | > 90 | 3.48 | ≤ 100 |  |  |  |  | CC1(C)CCC(=O)N(Cc2ccc(-c3cccc(C4CCC(=O)NC4=O)c3Cl)cc2)C1 (stereo not shown) [Compound 284]
22 | 72.6 | 60 to 90 | 261 | 100 to 1000 |  |  |  |  | O=C1CCC(c2cccc(-c3ccc(Cc4ncco4)nc3)c2Cl)C(=O)N1 (stereo not shown) [Compound 430, 3-(2-chloro-3-(6-(oxazol-2-ylmethyl)pyridin-3-yl)phenyl)piperidine-2,6-dione]
23 | 97.1 | > 90 | 9.19 | ≤ 100 |  |  |  |  | O=C1CCC(c2cccc(-c3ccc(-n4ccccc4=O)c(F)c3)c2Cl)C(=O)N1 (stereo not shown) [Compound 470, 3-(2-chloro-3′-fluoro-4′-(2-oxopyridin-1(2H)-yl)-[1,1′-biphenyl]-3-yl)piperidine-2,6-dione]
24 | 91 | > 90 | 16.2 | ≤ 100 |  |  |  |  | CN1CCN(Cc2ccc(-c3cccc(C4CCC(=O)NC4=O)c3Cl)cc2)C1=O (stereo not shown) [Compound 388, 3-(2-chloro-4′-((3-methyl-2-oxoimidazolidin-1-yl)methyl)-[1,1′-biphenyl]-3-yl)piperidine-2,6-dione]
25 | 91.5 | > 90 | 18.8 | ≤ 100 |  |  |  |  | O=C1CCC(c2cccc(-c3ccc(CN4CCCCC4=O)cc3)c2Cl)C(=O)N1 (stereo not shown) [Compound 168, 3-(2-chloro-4′-((2-oxopiperidin-1-yl)methyl)-[1,1′-biphenyl]-3-yl)piperidine-2,6-dione]
26 | 96.5 | > 90 | 10.7 | ≤ 100 |  |  |  |  | CN1CCCN(Cc2ccc(-c3cccc(C4CCC(=O)NC4=O)c3Cl)cc2F)C1=O (stereo not shown) [Compound 425, 3-(2-chloro-3′-fluoro-4′-((3-methyl-2-oxotetrahydropyrimidin-1(2H)-yl)methyl)-[1,1′-biphenyl]-3-yl)piperidine-2,6-dione]
27 | 92.9 | > 90 | 16.9 | ≤ 100 |  |  |  |  | CC1CCN(Cc2ccc(-c3cccc(C4CCC(=O)NC4=O)c3Cl)cc2)C1=O (stereo not shown) [Compound 290]
28 | 97.2 | > 90 | 4.54 | ≤ 100 |  |  |  |  | O=C1CCC(c2cccc(-c3ccc(Cc4ncccn4)cc3)c2Cl)C(=O)N1 (stereo not shown) [Compound 208]
29 | 79 | 60 to 90 | 427 | 100 to 1000 |  |  |  |  | N#Cc1ccc(-c2cccc(C3CCC(=O)NC3=O)c2Cl)cc1N (stereo not shown) [Compound 133]
30 | 95.4 | > 90 | 5.38 | ≤ 100 |  |  |  |  | CN1CCCN(c2ccc(-c3cccc(C4CCC(=O)NC4=O)c3Cl)cc2)C1=O (stereo not shown) [Compound 247]
31 |  |  |  |  | 95.8 | > 90 | 18 | ≤ 100 | CC1(C)Cc2cc(-c3cccc(C4CCC(=O)NC4=O)c3Cl)ccc2N1 (stereo not shown) [Compound 497, 3-(2-chloro-3-(2,2-dimethylindolin-5-yl)phenyl)piperidine-2,6-dione]
